Columns and labels:
[1] = target: isocitrate dehydrogenase 1 (IDH1) (Homo sapiens, UniProt O75874, D273L/R132H); test: isothermal titration calorimetry; type: binding
[2] = target: isocitrate dehydrogenase 1 (IDH1) (Homo sapiens, UniProt O75874, D273S); test: steady-state kinetics, NADPH absorbance at […] nm; type: biochemical
[3] = target: isocitrate dehydrogenase 1 (IDH1) (Homo sapiens, UniProt O75874); test: steady-state kinetics, NADPH absorbance at […] nm; type: biochemical
[4] = target: isocitrate dehydrogenase 1 (IDH1) (Homo sapiens, UniProt O75874, D273N); test: steady-state kinetics, NADPH absorbance at […] nm; type: biochemical
Sequence of isocitrate dehydrogenase 1 (IDH1) (Homo sapiens, UniProt O75874, D273N) (O75874 2-414 D273N): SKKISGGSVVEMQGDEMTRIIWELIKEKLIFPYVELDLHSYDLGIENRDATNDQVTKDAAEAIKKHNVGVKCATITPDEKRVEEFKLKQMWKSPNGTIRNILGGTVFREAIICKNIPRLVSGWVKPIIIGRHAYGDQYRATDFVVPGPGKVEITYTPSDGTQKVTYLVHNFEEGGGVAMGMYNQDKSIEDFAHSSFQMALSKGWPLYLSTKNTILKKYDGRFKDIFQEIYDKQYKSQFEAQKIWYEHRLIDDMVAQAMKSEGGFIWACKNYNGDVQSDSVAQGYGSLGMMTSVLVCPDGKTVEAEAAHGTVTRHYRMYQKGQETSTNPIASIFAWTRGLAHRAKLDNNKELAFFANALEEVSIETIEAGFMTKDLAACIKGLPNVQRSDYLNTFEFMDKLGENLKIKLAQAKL

[5] = target: isocitrate dehydrogenase 1 (IDH1) (Homo sapiens, UniProt O75874, K217M); test: steady-state kinetics, NADPH absorbance at […] nm; type: biochemical
Sequence of isocitrate dehydrogenase 1 (IDH1) (Homo sapiens, UniProt O75874, K217M) (O75874 2-414 K217M): as the sequence (O75874 2-414 D273N) above, with K216M, N272D counted along it

[6] = target: isocitrate dehydrogenase 1 (IDH1) (Homo sapiens, UniProt O75874, K217Q); test: steady-state kinetics, NADPH absorbance at […] nm; type: biochemical
Sequence of isocitrate dehydrogenase 1 (IDH1) (Homo sapiens, UniProt O75874, K217Q) (O75874 2-414 K217Q): as the sequence (O75874 2-414 D273N) above, with K216Q, N272D counted along it

[7] = target: isocitrate dehydrogenase 1 (IDH1) (Homo sapiens, UniProt O75874, D273L); test: steady-state kinetics, NADPH absorbance at […] nm; type: biochemical
Sequence of isocitrate dehydrogenase 1 (IDH1) (Homo sapiens, UniProt O75874, D273L) (O75874 2-414 D273L): as the sequence (O75874 2-414 D273N) above, with N272L counted along it

Sequence of isocitrate dehydrogenase 1 (IDH1) (Homo sapiens, UniProt O75874, D273L/R132H) (O75874 2-414 R132H/D273L): as the sequence (O75874 2-414 D273N) above, with R131H, N272L counted along it
Sequence of isocitrate dehydrogenase 1 (IDH1) (Homo sapiens, UniProt O75874) (O75874 2-414): as the sequence (O75874 2-414 D273N) above, with N272D counted along it
Sequence of isocitrate dehydrogenase 1 (IDH1) (Homo sapiens, UniProt O75874, D273S) (O75874 2-414 D273S): as the sequence (O75874 2-414 D273N) above, with N272S counted along it

Kd [1] [µM] | SMILES | Km [2] [µM] | Km [3] [µM] | Km [4] [µM] | Km [5] [µM] | Km [6] [µM] | Km [7] [µM]
3.3 ± 0.5 | Cc1ccccc1C(C(=O)NC1CCCCC1)N(C(=O)Cn1ccnc1C)c1cccc(F)c1 (stereo not shown) [AGI-5198] | – | – | – | – | – | –
– | O=C(O)CC(C(=O)O)C(O)C(=O)O (stereo not shown) [isocitrate] | 12000 ± 3000 | 61 ± 5 | 19000 ± 2000 | 150 ± 20 | 250 ± 20 | 1900 ± 200
